Measurements as given in the supplement of paper PMC10307832.

Columns and labels:
Assay in all cases: relative viability (nuclei count vs DMSO), 5 days (fraction); higher = more cells survive
CAP-232 + Bortezomib = compound: C[C@H]([C@@H](C(=O)N)NC(=O)[C@@H]1CSSC[C@@H](C(=O)N[C@H](C(=O)N[C@@H](C(=O)N[C@H](C(=O)N1)CCCCN)CC2=CNC3=CC=CC=C32)CC4=CC=C(C=C4)O)NC(=O)[C@@H](CC5=CC=CC=C5)N)O [CAP-232] + CC(C)C[C@H](NC(=O)[C@H](Cc1ccccc1)NC(=O)c1cnccn1)B(O)O [Bortezomib] (partner 0.002 µM)
In short: (§1)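 Values are medians from duplicate plates. Each reflects relative viability, defined as the nuclei count of treated wells over that of vehicle wells. Lung cancer cell lines in 1536-well plates were pin-tool dosed one day after seeding with one drug alone or with a fixed anchor-drug dose plus five library-drug doses (not always all listed) in √10 steps, then fixed, stained and imaged at 4× after 5 days.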

CAP-232 + Luminespib = compound: C[C@H]([C@@H](C(=O)N)NC(=O)[C@@H]1CSSC[C@@H](C(=O)N[C@H](C(=O)N[C@@H](C(=O)N[C@H](C(=O)N1)CCCCN)CC2=CNC3=CC=CC=C32)CC4=CC=C(C=C4)O)NC(=O)[C@@H](CC5=CC=CC=C5)N)O [CAP-232] + CCNC(=O)c1noc(-c2cc(C(C)C)c(O)cc2O)c1-c1ccc(CN2CCOCC2)cc1 [Luminespib] (partner 0.01 µM)
In short: as §1

CAP-232 + Foretinib = compound: C[C@H]([C@@H](C(=O)N)NC(=O)[C@@H]1CSSC[C@@H](C(=O)N[C@H](C(=O)N[C@@H](C(=O)N[C@H](C(=O)N1)CCCCN)CC2=CNC3=CC=CC=C32)CC4=CC=C(C=C4)O)NC(=O)[C@@H](CC5=CC=CC=C5)N)O [CAP-232] + COc1cc2c(Oc3ccc(NC(=O)C4(C(=O)Nc5ccc(F)cc5)CC4)cc3F)ccnc2cc1OCCCN1CCOCC1 [Foretinib] (partner 0.25 µM)
In short: as §1

CAP-232 + Tozasertib = compound: C[C@H]([C@@H](C(=O)N)NC(=O)[C@@H]1CSSC[C@@H](C(=O)N[C@H](C(=O)N[C@@H](C(=O)N[C@H](C(=O)N1)CCCCN)CC2=CNC3=CC=CC=C32)CC4=CC=C(C=C4)O)NC(=O)[C@@H](CC5=CC=CC=C5)N)O [CAP-232] + Cc1cc(Nc2cc(N3CCN(C)CC3)nc(Sc3ccc(NC(=O)C4CC4)cc3)n2)n[nH]1 [Tozasertib] (partner 0.1 µM)
In short: as §1

CAP-232 + Vorinostat = compound: C[C@H]([C@@H](C(=O)N)NC(=O)[C@@H]1CSSC[C@@H](C(=O)N[C@H](C(=O)N[C@@H](C(=O)N[C@H](C(=O)N1)CCCCN)CC2=CNC3=CC=CC=C32)CC4=CC=C(C=C4)O)NC(=O)[C@@H](CC5=CC=CC=C5)N)O [CAP-232] + O=C(CCCCCCC(=O)Nc1ccccc1)NO [Vorinostat] (partner 1 µM)
In short: as §1

Row | Cell Line | relative viability (CAP-232 + Bortezomib; first compound 0.4 µM) | relative viability (CAP-232 + Bortezomib; first compound 1.265 µM) | relative viability (CAP-232 + Bortezomib; first compound 4 µM) | relative viability (CAP-232 + Bortezomib; first compound 12.65 µM) | relative viability (CAP-232 + Luminespib; first compound 0.4 µM) | relative viability (CAP-232 + Luminespib; first compound 1.265 µM) | relative viability (CAP-232 + Luminespib; first compound 4 µM) | relative viability (CAP-232 + Luminespib; first compound 12.65 µM) | relative viability (CAP-232 + Foretinib; first compound 0.4 µM) | relative viability (CAP-232 + Foretinib; first compound 1.265 µM) | relative viability (CAP-232 + Foretinib; first compound 4 µM) | relative viability (CAP-232 + Foretinib; first compound 12.65 µM) | relative viability (CAP-232 + Tozasertib; first compound 0.4 µM) | relative viability (CAP-232 + Tozasertib; first compound 1.265 µM) | relative viability (CAP-232 + Tozasertib; first compound 4 µM) | relative viability (CAP-232 + Tozasertib; first compound 12.65 µM) | relative viability (CAP-232 + Vorinostat; first compound 0.4 µM) | relative viability (CAP-232 + Vorinostat; first compound 1.265 µM) | relative viability (CAP-232 + Vorinostat; first compound 4 µM) | relative viability (CAP-232 + Vorinostat; first compound 12.65 µM)
1 | 201T | 1.17 | 1.04 | 1.05 | 1.1 | 1.08 | 1.04 | 0.967 | 1.07 | 1.17 | 1.14 | 1.03 | 0.864 | 1.04 | 0.91 | 0.979 | 0.926 | 1.05 | 0.98 | 1 | 0.995
2 | A549 |  |  |  |  |  |  |  |  | 1.01 | 0.998 | 0.935 | 0.369 |  |  |  |  |  |  |  | 
3 | A-427 | 1.21 | 0.972 | 0.993 | 0.964 | 0.697 | 0.968 | 0.87 | 1.03 | 0.852 | 1.19 | 1.05 | 1.1 | 0.164 | 0.186 | 0.149 | 0.207 | 0.937 | 0.882 | 0.879 | 0.893
4 | ABC-1 | 0.296 | 0.306 | 0.222 | 0.264 | 0.554 | 0.587 | 0.686 | 0.377 | 0.772 | 0.876 | 1.35 | 0.677 | 0.155 | 0.143 | 0.179 | 0.148 | 1.48 |  | 1.13 | 0.952
5 | BEN | 0.819 | 0.667 | 0.959 | 0.745 | 0.501 | 0.234 | 0.184 | 0.371 | 0.776 | 0.624 | 0.595 | 0.595 | 0.413 | 0.547 | 0.387 | 0.635 | 0.547 | 0.57 | 0.565 | 0.479
6 | CAL-12T | 1.21 | 0.939 | 0.91 | 0.477 | 0.132 | 0.184 | 0.242 | 0.155 | 1.06 | 1.06 | 0.927 | 0.85 | 0.434 | 0.264 | 0.262 | 0.358 | 0.805 | 0.752 | 0.832 | 0.431
7 | COR-L23 | 0.959 | 1.04 | 1.15 | 0.732 | 0.475 | 0.776 | 0.81 | 0.506 | 1.02 | 0.957 | 1.1 | 0.851 | 0.176 | 0.194 | 0.187 | 0.193 | 0.518 | 0.474 | 0.488 | 0.381
8 | COR-L 105 | 0.913 | 0.742 | 0.657 | 0.567 | 0.768 | 0.652 | 0.737 | 0.494 | 0.955 | 0.851 | 1.22 | 0.572 | 0.346 | 0.387 | 0.379 | 0.323 | 0.871 | 0.719 | 1 | 0.637
9 | ChaGo-K-1 | 1.45 | 0.768 | 1.06 | 0.784 | 0.574 | 0.638 | 0.495 | 0.545 | 0.954 | 0.779 | 0.836 | 0.912 | 0.218 | 0.237 | 0.245 | 0.213 | 0.835 | 0.724 | 0.709 | 0.71
10 | EKVX | 1.15 | 0.931 | 0.925 | 0.917 | 0.876 | 0.719 | 0.871 | 0.645 | 0.77 | 0.571 | 0.768 | 0.768 | 0.352 | 0.376 | 0.422 | 0.31 | 1.01 | 0.74 | 0.818 | 0.749
11 | EMC-BAC-2 | 1.13 | 1.11 | 1.14 | 1.12 | 1.32 | 1.19 | 1.21 | 1.05 | 1.1 | 0.953 | 1.01 | 0.907 | 0.304 | 0.276 | 0.289 | 0.247 | 0.818 | 0.395 | 0.483 | 0.383
12 | EPLC-272H | 0.992 | 0.878 | 0.892 | 0.87 | 0.256 | 0.198 | 0.219 | 0.157 | 0.661 | 0.644 | 0.659 | 0.71 | 0.25 | 0.182 | 0.288 | 0.389 |  | 0.615 | 0.545 | 0.158
13 | H3255 | 0.934 | 0.816 | 0.829 | 0.688 | 0.805 | 0.825 | 1.05 | 1.01 | 0.849 | 0.799 | 0.866 | 0.854 | 0.612 | 0.733 | 0.791 | 0.893 | 0.923 |  | 0.7 | 0.726
14 | HARA | 1.2 | 1.2 | 1.13 | 1.17 | 0.918 | 0.884 | 0.973 | 0.804 | 0.983 | 0.975 | 0.805 | 0.824 | 0.0986 | 0.0955 | 0.144 | 0.0866 | 0.497 | 0.487 | 0.598 | 0.432
15 | HCC-15 | 1.16 | 1 | 1.27 | 0.77 | 0.254 | 0.228 | 0.248 | 0.312 | 1.08 | 1.07 | 1.09 | 0.652 | 0.378 | 0.329 | 0.382 | 0.435 | 0.825 | 0.858 | 0.959 | 0.61
